Patent publication US20100197743A1, “Use of sulphur-containing heteroaromatic acid analogues” (Bayer CropScience AG, priority 2008, published 2010)

Tested on: black Sigatoka fungus Mycosphaerella figiensis
Experiment: Field study of black Sigatoka control on Cavendish bananas (Stover method)
Assay type: in vivo, Mycosphaerella figiensis on Cavendish bananas
Design: key to YLI last determ. (youngest infected leaf): leaf number of youngest leaf showing Sigatoka symptoms; YLI AUDPC / SEV AUDPC: unit not given here
Conditions: for SEV last determ. (severity of the disease) / YLI last determ. (youngest infected leaf): foliar spray, eight applications at seven-day intervals, last determination Oct. 23, 2008; for SEV ABBOTT: % severity calculated as described by ABBOTT; for SEV AUDPC / YLI AUDPC: area under the disease progress curve over the complete study period
Description: If the banana disease caused by the black Sigatoka fungus Mycosphaerella figiensis is not controlled, the latter can destroy the banana leaves and greatly reduce the yield. To control Sigatoka, commercially available fungicides are used which are usually applied to banana plants by foliar application.
It was intended to determine whether isotianil is capable of controlling the black Sigatoka infection with reference to studies carried out on Cavendish bananas in Devao del Norte in the southern Philippines.
Compound I-2 as defined above was formulated as a suspension concentrate formulation (200 SC) with Banol mineral oil and water in a ratio of 0.5 l of compound I-2 (200 SC), 5 l of oil and 74 l of water. The emulsifier used was 0.05 l of Lutensol so as to maintain the oil/water mixture as a stable emulsion.
After the formulation procedure, the mixture was sprayed onto banana trees using engine-driven spray mist applicators which applied a total volume of 80 l/ha.
This was followed by eight applications at seven-day intervals between Aug. 28 and Oct. 16, 2008. The isotianil application rate was 50, 75 and 100 g of a.i./ha, respectively.
For comparison with the isotianil plots, one plot was left untreated, and a further plot was sprayed with Sico (difenconazole 250 SC), a commercially available fungicide which is used for controlling black Sigatoka. Sico was sprayed together with Banol oil and Lutensol at an application rate of 100 g of a.i./ha, as above.
Each plot consisted of two banana plants at the BBCH growth stage 1056-1100. Each treatment consisted of three replications.
After the application, the disease level on the banana leaves was determined according to several parameters which are defined by the “Stover method” (Stover, 1971 R. H. Stover, A proposed international scale for estimating intensity of banana leaf spot, Tropical Agriculture).
Youngest infected leaf (YLI): This parameter records which leaf of the plant was the youngest leaf to show initial symptoms of Sigatoka infection. This is important since this has a direct relationship with the degree of infection, since the youngest leaves are infected last. Under the test conditions, the plants produce approximately one new leaf per week.
The severity of the disease (SEV) describes the direct percentage of visual disease on the plant.
The youngest infected leaf and the severity of the disease were determined weekly after the first application. The data hereinbelow describe the results of the last determination measured at the end of the experiment, on Oct. 23, 2008. After the weekly determination, moreover, the data were compiled in the form of a graph, and the area under the disease progress curve (AUDPC) was calculated over the complete study period and is listed hereinbelow. Moreover, % severity was calculated as described by ABBOTT.

N#Cc1ccccc1NC(=O)c1snc(Cl)c1Cl [Compound I-2, isotianil] was tested, and the “SEV last determ. (severity of the disease)” value (50 g of a.i./ha) was 5.3%, the “YLI last determ. (youngest infected leaf)” value (50 g of a.i./ha) was 4 and the “SEV ABBOTT” value (50 g of a.i./ha) was 72.4%. For the same compound, the “SEV AUDPC” value (50 g of a.i./ha) was 314, the “YLI AUDPC” value (50 g of a.i./ha) was 223 and the “SEV last determ. (severity of the disease)” value (75 g of a.i./ha) was 5%. For the same compound, the “YLI last determ. (youngest infected leaf)” value (75 g of a.i./ha) was 4, the “SEV ABBOTT” value (75 g of a.i./ha) was 74% and the “SEV AUDPC” value (75 g of a.i./ha) was 285. For the same compound, the “YLI AUDPC” value (75 g of a.i./ha) was 224, the “SEV last determ. (severity of the disease)” value (100 g of a.i./ha) was 5.3% and the “YLI last determ. (youngest infected leaf)” value (100 g of a.i./ha) was 4. For the same compound, the “SEV ABBOTT” value (100 g of a.i./ha) was 72.6%, the “SEV AUDPC” value (100 g of a.i./ha) was 313 and the “YLI AUDPC” value (100 g of a.i./ha) was 119.
